Results: patent US5547845A (Duke University, priority 1994, dated 1996)
“Also recorded” adds a separate entry of the source. Where two headings read alike, the source gives them in different places. Values belong to the compound of their own block, whether it stands above or below them.

Columns and labels:
[1] = target: T1, human D1 dopamine receptor (clone HGL26) (Homo sapiens, UniProt P21728); assay: Adenylyl cyclase activity in membranes of mouse fibroblasts [L-M(TK^-)] expressing HGL26; format: biochemical; details: for block of dopamine-stimulated adenylyl cyclase activity: dopamine 100 μM, SCH23390 and raclopride 1 μM each
T1 sequence (P21728 whole entry): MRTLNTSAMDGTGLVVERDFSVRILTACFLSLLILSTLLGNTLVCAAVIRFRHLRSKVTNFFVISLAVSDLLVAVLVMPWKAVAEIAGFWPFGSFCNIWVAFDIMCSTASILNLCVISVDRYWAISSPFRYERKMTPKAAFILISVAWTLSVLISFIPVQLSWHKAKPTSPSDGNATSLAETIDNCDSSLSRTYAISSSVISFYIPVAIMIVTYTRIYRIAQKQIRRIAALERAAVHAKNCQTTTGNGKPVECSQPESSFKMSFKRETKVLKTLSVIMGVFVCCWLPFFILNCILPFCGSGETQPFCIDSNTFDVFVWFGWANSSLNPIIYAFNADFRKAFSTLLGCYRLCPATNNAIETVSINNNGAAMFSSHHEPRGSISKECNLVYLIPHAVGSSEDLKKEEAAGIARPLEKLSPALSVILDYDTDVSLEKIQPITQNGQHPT

[2] = target: T2, human D1 dopamine receptor (clone HGR213-1) (Homo sapiens, UniProt P21728); format: binding; design: expressed in transfected cells; host or cells: monkey kidney COS-7 cells, transient, PBC12BI; details: FIG. 4 competition curves
T2 sequence (P21728 whole entry, the tested form may be a part): as the sequence (P21728 whole entry) above

[3] = target: T1, human D1 dopamine receptor (clone HGL26); assay: Competition for [^125 I]SCH23982 binding to membranes of COS-7 cells expressing HGL26; design: a 2.3 kb EcoRI-XbaI restriction fragment containing the open reading frame was subcloned into the expression vector pCMV5; expressed in transfected cells; host or cells: African green monkey kidney COS-7 cells, transient, pCMV5
[4] = test system: untransfected COS-7 cells; assay: Specific binding of [^3 H]SCH23390 to untransfected COS-7 cells; design: species or system monkey; details: data not shown
Experimental: Membranes were prepared by homogenizing cells with a ConTorque homogenizer at 4° C. in TEM buffer. The homogenate was centrifuged at 800 g for 10 min and the pellet was subjected to a second homogenization and centrifugation. Supernatants were pooled and centrifuged at 100,000 g for 1 h. The pellet was then resuspended in TEM buffer at appropriate protein concentration and stored in small aliquots at -70° C. […] Binding was initiated by the addition of membrane preparation (20-30 μg protein) and carried on at 30° C. for 1 h. Nonspecific binding was defined in the presence of 10 μM (+)Butaclamol. The samples were filtered through glass fiber filters (Schleicher and Schuell No.32) and washed three times with 4 ml ice-cold 10 mM Tris pH 7.4. The radioactivity retained on the filter was counted using a Beckman LS6800 scintillation counter. […] See J. Bunzow et al., Nature 336,783 (1988). […] A LIGAND computer program was used for data analysis and curve fitting.

[5] = target: T2, human D1 dopamine receptor (clone HGR213-1); assay: cAMP accumulation in human embryonic kidney 293 cells transfected with HGR213-1
[6] = target: T1, human D1 dopamine receptor (clone HGL26); assay: Saturation binding of [^125 I]SCH23982 to membranes of COS-7 cells expressing HGL26; design: a 2.3 kb EcoRI-XbaI restriction fragment containing the open reading frame was subcloned into the expression vector pCMV5; expressed in transfected cells; host or cells: African green monkey kidney COS-7 cells, transient, pCMV5; details: transfected COS-7 membranes vs antisense construct
Experimental: To identify the protein encoded by genomic clone HGL26, a 2.3 kb EcoRI-XbaI restriction fragment containing the open reading frame was subcloned into the expression vector pCMV5 and transiently transfected into African green monkey kidney (COS-7) cells. See Andersson, S. et al., J. Biol. Chem. 264, 8222-8229 (1989). The DEAE-dextran method was used for transient transfection of COS-7 cells. See Cullen, B. Meth. Enzymol. 152, 684-704 (1987). After 48 hours, transfected cells were lysed and homogenized in ice-cold lysis buffer (10 mM Tris HCl, pH 7.4, 5 mM EDTA). The homogenate was centrifuged at 43,000 g for 30 min at 4° C. The resulting pellet was resuspended in lysis buffer, re-homogenized, and re-centrifuged. This pellet was resuspended in an assay buffer containing 50 mM Tris HCl, pH 7.4, 100 mM NaCl, 5 mM EDTA.
See Sidhu, A. et al., J. Eur. J. Pharmacol. 128, 213-220 (1986).

[7] = test system: α1-adrenergic receptor; details: α1-adrenergic receptor-transfected COS-7 cells; data not shown
[8] = ~0.3 nM [^125 I]SCH23982, 1 hr, room temperature, means of 2-5 independent determinations, one-site model, read-out: Kd (apparent equilibrium dissociation constant) for [^125 I]SCH23982 binding sites

SMILES: OCCN1CCN(CC/C=C2/c3ccccc3Sc3ccc(C(F)(F)F)cc32)CC1 [cis-flupenthixol]
rank order of ligand potency [2]: SCH23390<(+)Butaclamol>Flupenthixol>>Haloperidol

SMILES: OCCC1CCN(CC/C=C2/c3ccc(F)cc3Sc3ccc(C(F)(F)F)cc32)CC1 [cis-piflutixol]
Kd [3, 8]: 0.2 nM

SMILES: C=CCc1ccccc1OCC(O)CNC(C)C (stereo not drawn) [alprenolol]
Kd [3]: 16000 nM

SMILES: CN1CCc2cc(Cl)c(O)cc2C(c2ccccc2)C1 (stereo not drawn) [[^3 H]SCH23390]
specific binding to untransfected cells [4]: no specific binding

SMILES: O=C(CCCN1CCC2(CC1)C(=O)NCN2c1ccccc1)c1ccc(F)cc1 [spiperone]
Kd [3]: 220 nM

SMILES: CN1CCc2cc([125I])c(O)cc2[C@@H](c2ccccc2)C1 [[^125 I]SCH23982]
increase in specific binding compared to cells transfected with an antisense construct [6]: 10- to 30 fold

SMILES: CNC[C@H](O)c1ccc(O)c(O)c1 [epinephrine]
stimulation of phosphatidylinositol (PI) metabolism [7]: potently evoked this response

SMILES: CCN1CCC[C@H]1CNC(=O)c1c(O)c(Cl)cc(Cl)c1OC (racemic) [raclopride]
block of dopamine-stimulated adenylyl cyclase activity [1]: not by the D2 antagonist raclopride
Kd [3, 8]: > 72000 nM

The next lines start with results.

stimulation of adenylyl cyclase activity (in words) ([1]; SKF38393 and quinpirole, 1 μM each): also stimulated enzyme activity
SMILES: Oc1cc2c(cc1O)C(c1ccccc1)CNCC2 (stereo not drawn) [SKF38393]

potency in competition with [^3 H]SCH23390 (in words) [2]: most potent
SMILES: Oc1ccc(C2CNCCc3c2cc(O)c(O)c3Cl)cc1 (stereo not drawn) [SKF82526]

block of dopamine-stimulated adenylyl cyclase activity [1]: blocked
antagonism of agonist-stimulated cAMP production [5]: blocked; also recorded: antagonized
potency in competition with [^3 H]SCH23390 (in words) [2]: most potent
SMILES: CN1CCc2cc(Cl)c(O)cc2[C@@H](c2ccccc2)C1 [SCH23390]
rank order of ligand potency [2]: SCH23390<(+)Butaclamol>Flupenthixol>>Haloperidol
